Source: US7897765B2, “Therapeutic compounds and uses thereof” (Elixir Pharmaceuticals, Inc., priority 2003, dated 2011)

Each compound was assayed against GHS-R (Homo sapiens, UniProt Q92847) (assay: cell based assay of GHS-R antagonist/agonist activity). Conditions: GHS-R antagonist Ki and/or agonist EC50 class.
Design: key: A refers to a compound having antagonist activity with Ki<100 nM in a cell based assay; B refers to a compound having agonist activity with EC50<100 nM in a cell based assay; C refers to a compound having antagonist activity of Ki>100 nM and <1500 nM in a cell based assay; D refers to a compound having antagonist activity with Ki, <100 nM and agonist activity with EC50<100 nM in a cell-based assay; E refers to other exemplary compounds
Method: Cell-Based Activity Assays. For example, the ability of the compound to modulate accumulation of a second messenger signaling component downstream of GHS-R can be evaluated. For example, inositol phosphates (IP), as a result of Gq signaling in a mammalian cell, e.g., a Cos-7 cells. Other tissue culture cells, Xenopus oocytes, and primary cells can also be used.
Phosphatidylinositol turnover assay. One day after transfection COS-7 cells are incubated for 24 hours with 5 μCi of [^3H]-myo-inositol in 1 ml medium supplemented with 10% fetal calf serum, 2 mM glutamine and 0.01 mg/ml gentamicin per well. Cells are then washed twice in buffer, 20 mM HEPES, pH 7.4, supplemented with 140 mM NaCl, 5 mM KCl, 1 mM MgSO4, 1 mM CaCl2, mM glucose, 0.05% (w/v) bovine serum; and incubated in 0.5 ml buffer supplemented with 10 mM LiCl at 37° C. for 30 min. For some assays, it is also useful to incubate the cells with adenosine deaminase ADA (200 U/mg, Boehringer Mannheim, Germany) for 30 min in a concentration of 1 U/ml.
After incubation with the compound of interest for 45 min at 37° C., cells are extracted with 10% ice-cold perchloric acid and placed on ice for 30 min. The resulting supernatants are neutralized with KOH in HEPES buffer, and [^3H]-inositol phosphate is purified on Bio-Rad AG 1-X8 anion exchange resin as described. Assays can be run in duplicate, triplicate, etc.
Other second messenger assays. Another second messenger that can be evaluated is Ca^2+. Ca^2+ mobilization can be evaluated using a calcium sensitive detector, such as aequorin protein or a dye, e.g., FURA-2. In an exemplary assay, calcium mobilization is evaluated in a recombinant cell that expresses GHS-R and aequorin.
Gene expression assay. HEK293 cells (30 000 cells/well) seeded in 96-well plates are transiently transfected with a mixture of pFA2-CREB and pFR-Luc reporter plasmid (PathDetect™ CREB trans-Reporting System, Stratagene) and nucleic acid encoding GHS. One day after transfection, cells are treated with the compound of interest in an assay volume of 100 μl medium for 5 hrs. After treatment, cells are cultured in low serum (2.5%). After the incubation period, the assay is ended by washing the cells twice with PBS and adding 100 μl luciferase assay reagent (LucLite™, Packard Bioscience). Luminescence is measured (e.g., as relative light units (RLU)) using in a luminometer such as the TopCounter™ (Packard Bioscience) for 5 sec.
IC50 and EC50 values can be determined by nonlinear regression, e.g., using the Prism 3.0 software (GraphPad Software, San Diego).

Sequence of GHS-R (Q92847 whole entry, species assumed): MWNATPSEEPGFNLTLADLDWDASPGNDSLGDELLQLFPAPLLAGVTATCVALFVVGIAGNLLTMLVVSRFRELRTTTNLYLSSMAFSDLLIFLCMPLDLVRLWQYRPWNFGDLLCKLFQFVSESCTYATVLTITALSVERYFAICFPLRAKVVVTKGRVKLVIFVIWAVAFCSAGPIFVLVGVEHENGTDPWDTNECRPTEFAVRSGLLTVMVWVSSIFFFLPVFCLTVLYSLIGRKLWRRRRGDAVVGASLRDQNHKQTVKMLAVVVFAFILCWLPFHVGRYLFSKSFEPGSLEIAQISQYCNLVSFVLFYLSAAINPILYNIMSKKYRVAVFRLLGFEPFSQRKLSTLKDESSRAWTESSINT

Row | Structure (SMILES) | Activity
1 | CS(=O)(=O)N1CC2(CCN(C(=O)[C@@H](COCc3ccccc3)NC(=O)CO)CC2)c2ccccc21 [Compound 54] | E
2 | CS(=O)(=O)N1CC2(CCN(C(=O)[C@@H](COCc3ccccc3)NC(=O)Cn3ccnc3)CC2)c2ccccc21 [Compound 55] | E
3 | CN(C)CC(=O)N[C@H](COCc1ccccc1)C(=O)N1CCC2(CC1)CNc1ccccc12 [Compound 68] | E
4 | CNCC(=O)N[C@H](COCc1ccccc1)C(=O)N1CCC2(CC1)CN(S(C)(=O)=O)c1ccccc12 [Compound 70] | E
5 | CC(=O)OCC(=O)N1CC2(CCN(C(=O)[C@@H](COCc3ccccc3)NC(=O)CN(C)C)CC2)c2ccccc21 [Compound 71] | E
6 | C[C@H](N)C(=O)N[C@H](COCc1ccccc1)C(=O)N1CCC2(CC1)CN(S(C)(=O)=O)c1ccccc12 [Compound 78] | E
7 | C[C@@H](N)C(=O)N[C@H](COCc1ccccc1)C(=O)N1CCC2(CC1)CN(S(C)(=O)=O)c1ccccc12 [Compound 79] | E
8 | CS(=O)(=O)N1CC2(CCN(C(=O)[C@@H](COCc3ccccc3)NC(=O)C3=NCCN3)CC2)c2ccccc21 [Compound 80] | E
9 | C[C@@H](C(=O)N[C@H](COCc1ccccc1)C(=O)N1CCC2(CC1)CN(S(C)(=O)=O)c1ccccc12)N(C)C [Compound 81] | E
10 | CN(C)CCS(=O)(=O)N[C@H](COCc1ccccc1)C(=O)N1CCC2(CC1)CN(S(C)(=O)=O)c1ccccc12 [Compound 83] | E
11 | CN1CCC(N[C@H](COCc2ccccc2)C(=O)N2CCC3(CC2)CN(S(C)(=O)=O)c2ccccc23)CC1 [Compound 84] | E
12 | CS(=O)(=O)N1CC2(CCN(C(=O)[C@@H](COCc3ccccc3)NC(=S)NCc3ccco3)CC2)c2ccccc21 [Compound 87] | E
13 | CC(=O)N(C1CCN(C)CC1)[C@H](COCc1ccccc1)C(=O)N1CCC2(CC1)CN(S(C)(=O)=O)c1ccccc12 [Compound 88] | E
14 | CN(C)CCC(=O)N[C@H](COCc1ccccc1)C(=O)N1CCC2(CC1)CN(S(C)(=O)=O)c1ccccc12 [Compound 89] | E
15 | CCN(CC)CC(=O)N[C@H](COCc1ccccc1)C(=O)N1CCC2(CC1)CN(S(C)(=O)=O)c1ccccc12 [Compound 90] | E
16 | CN1CCN(CC(=O)N[C@H](COCc2ccccc2)C(=O)N2CCC3(CC2)CN(S(C)(=O)=O)c2ccccc23)CC1 [Compound 91] | E

Row | Structure (SMILES) | Activity
17 | CS(=O)(=O)N1CC2(CCN(C(=O)[C@@H](COCc3ccccc3)NC(=O)NCCN3CCOCC3)CC2)c2ccccc21 [Compound 92] | E
18 | CN1CCN(C(=O)N[C@H](COCc2ccccc2)C(=O)N2CCC3(CC2)CN(S(C)(=O)=O)c2ccccc23)CC1 [Compound 93] | E
19 | CN(C)CCNC(=O)N[C@H](COCc1ccccc1)C(=O)N1CCC2(CC1)CN(S(C)(=O)=O)c1ccccc12 [Compound 94] | E
20 | CS(=O)(=O)N1CC2(CCN(C(=O)[C@@H](COCc3ccccc3)NC(=O)NCCCO)CC2)c2ccccc21 [Compound 95] | E
21 | CCN1CCC[C@@H]1CNC(=O)N[C@H](COCc1ccccc1)C(=O)N1CCC2(CC1)CN(S(C)(=O)=O)c1ccccc12 [Compound 96] | E
22 | CS(=O)(=O)N1CC2(CCN(C(=O)[C@@H](COCc3ccccc3)NC(=O)NCCN3CCCCC3)CC2)c2ccccc21 [Compound 97] | E
23 | CC(C)(C)OC(=O)N1CC=C(C(=O)N[C@H](COCc2ccccc2)C(=O)N2CCC3(CC2)CN(S(C)(=O)=O)c2ccccc23)CC1 [Compound 98] | E
24 | CN1CC=C(C(=O)N[C@H](COCc2ccccc2)C(=O)N2CCC3(CC2)CN(S(C)(=O)=O)c2ccccc23)CC1 [Compound 99] | E
25 | CCN1CC=C(C(=O)N[C@H](COCc2ccccc2)C(=O)N2CCC3(CC2)CN(S(C)(=O)=O)c2ccccc23)CC1 [Compound 100] | E
26 | CCN(CCS(=O)(=O)N[C@H](COCc1ccccc1)C(=O)N1CCC2(CC1)CN(S(C)(=O)=O)c1ccccc12)C(C)C [Compound 101] | E
27 | CC(C)CCN1CC=C(C(=O)N[C@H](COCc2ccccc2)C(=O)N2CCC3(CC2)CN(S(C)(=O)=O)c2ccccc23)CC1 [Compound 102] | E
28 | CC(C)(C)OC(=O)N1CCC(CNC(COCc2ccccc2)C(=O)N2CCC3(CC2)CN(S(C)(=O)=O)c2ccccc23)CC1 (stereo not drawn) [Compound 103] | E
29 | CS(=O)(=O)N1CC2(CCN(C(=O)C(COCc3ccccc3)NCC3CCNCC3)CC2)c2ccccc21 (stereo not drawn) [Compound 104] | E
30 | CS(=O)(=O)N1CC2(CCN(C(=O)[C@@H](COCc3ccccc3)NS(=O)(=O)CCN3CCC3)CC2)c2ccccc21 [Compound 105] | E
31 | CS(=O)(=O)N1CC2(CCN(C(=O)[C@@H](COCc3ccccc3)NC(=O)C3=CCCNC3)CC2)c2ccccc21 [Compound 107] | E

More lines, now with the values ahead:

Row | Activity | Structure (SMILES)
32 | E | CC(C)(C)OC(=O)N[C@H](COCc1ccccc1)C(=O)N1CCC2(CC1)CNc1ccccc12 [Compound 56]
33 | E | COCC(=O)N1CC2(CCN(C(=O)[C@@H](COCc3ccccc3)NC(=O)OC(C)(C)C)CC2)c2ccccc21 [Compound 57]
34 | E | COc1cccc(C(=O)N2CC3(CCN(C(=O)[C@@H](COCc4ccccc4)NC(=O)OC(C)(C)C)CC3)c3ccccc32)c1 [Compound 58]
35 | E | CC(=O)OCC(=O)N1CC2(CCN(C(=O)[C@@H](COCc3ccccc3)NC(=O)OC(C)(C)C)CC2)c2ccccc21 [Compound 59]
36 | E | COC(=O)CC(=O)N1CC2(CCN(C(=O)[C@@H](COCc3ccccc3)NC(=O)OC(C)(C)C)CC2)c2ccccc21 [Compound 60]
37 | E | CC(C)(C)OC(=O)N[C@H](COCc1ccccc1)C(=O)N1CCC2(CC1)CN(C(=O)CO)c1ccccc12 [Compound 61]
38 | E | CC(C)(C)OC(=O)N[C@H](COCc1ccccc1)C(=O)N1CCC2(CC1)CN(C(=O)CC(=O)O)c1ccccc12 [Compound 62]
39 | E | CN(C)CC(=O)N1CC2(CCN(C(=O)[C@@H](COCc3ccccc3)NC(=O)OC(C)(C)C)CC2)c2ccccc21 [Compound 63]
40 | E | CC(C)(C)OC(=O)N[C@H](COCc1ccccc1)C(=O)N1CCC2(CC1)CN(S(=O)(=O)CC(F)(F)F)c1ccccc12 [Compound 64]
41 | E | COc1cccc(NC(=O)N2CC3(CCN(C(=O)[C@@H](COCc4ccccc4)NC(=O)OC(C)(C)C)CC3)c3ccccc32)c1 [Compound 65]
42 | E | CC(C)(C)OC(=O)N[C@H](COCc1ccccc1)C(=O)N1CCC2(CC1)CN(C(=O)Cn1ccnc1)c1ccccc12 [Compound 66]
43 | E | CC(C)(C)OC(=O)N[C@H](COCc1ccccc1)C(=O)N1CCC2(CC1)CN(S(=O)(=O)Cc1ccccc1)c1ccccc12 [Compound 67]
44 | E | COc1cccc(NC(=O)N2CC3(CCN(C(=O)[C@@H](COCc4ccccc4)NC(=O)CN(C)C)CC3)c3ccccc32)c1 [Compound 69]
45 | E | COC(=O)CC(=O)N1CC2(CCN(C(=O)[C@@H](COCc3ccccc3)NC(=O)CN(C)C)CC2)c2ccccc21 [Compound 72]
46 | E | COCC(=O)N1CC2(CCN(C(=O)[C@@H](COCc3ccccc3)NC(=O)CN(C)C)CC2)c2ccccc21 [Compound 73]
47 | E | COc1cccc(C(=O)N2CC3(CCN(C(=O)[C@@H](COCc4ccccc4)NC(=O)CN(C)C)CC3)c3ccccc32)c1 [Compound 74]
48 | E | CN(C)CC(=O)N[C@H](COCc1ccccc1)C(=O)N1CCC2(CC1)CN(C(=O)CO)c1ccccc12 [Compound 75]
49 | E | CC(C)(C)NC(=S)N[C@H](COCc1ccccc1)C(=O)N1CCC2(CC1)CN(S(C)(=O)=O)c1ccccc12 [Compound 85]
50 | E | CS(=O)(=O)N1CC2(CCN(C(=O)[C@@H](COCc3ccccc3)NC(=S)Nc3cccnc3)CC2)c2ccccc21 [Compound 86]
51 | E | CC(C)(C)OC(=O)N1CCC=C(C(=O)N[C@H](COCc2ccccc2)C(=O)N2CCC3(CC2)CN(S(C)(=O)=O)c2ccccc23)C1 [Compound 106]
